What was measured:
[1] = compound: CC(C)C[C@H](NC(=O)[C@H](CCc1ccccc1)NC(=O)CN1CCOCC1)C(=O)N[C@@H](Cc1ccccc1)C(=O)N[C@@H](CC(C)C)C(=O)[C@@]1(C)CO1 [Carfilzomib] + CC(=O)c1c(C)c2cnc(Nc3ccc(N4CCNCC4)cn3)nc2n(C2CCCC2)c1=O [Palbociclib] (partner 0.5 µM); assay: relative viability (nuclei count vs DMSO), 5 days (fraction); higher = more cells survive
How it was run: (§1)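 The day after seeding in 1536-well plates, lung cancer cell lines were treated by pin tool with a single drug, or with a fixed anchor-drug dose together with five library-drug doses (not always all listed) in √10 steps. After 5 days, a combined fix-and-stain solution (final 0.05% Triton X-100, 1% formaldehyde, 1 ug/ml Hoechst) was added. Nuclei counted on 4× images gave relative viability as treated counts over vehicle counts, reported as the median of duplicate plates.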

Carfilzomib + Olaparib = compound: CC(C)C[C@H](NC(=O)[C@H](CCc1ccccc1)NC(=O)CN1CCOCC1)C(=O)N[C@@H](Cc1ccccc1)C(=O)N[C@@H](CC(C)C)C(=O)[C@@]1(C)CO1 [Carfilzomib] + O=C(c1cc(Cc2n[nH]c(=O)c3ccccc23)ccc1F)N1CCN(C(=O)C2CC2)CC1 [Olaparib] (partner 8 µM); assay: as above
How it was run: as §1

| Cell Line | relative viability ([1]; first compound 0.001 µM) | relative viability ([1]; first compound 0.003162 µM) | relative viability ([1]; first compound 0.01 µM) | relative viability ([1]; first compound 0.03162 µM) | relative viability ([1]; first compound 0.1 µM) | relative viability (Carfilzomib + Olaparib; first compound 0.001 µM) | relative viability (Carfilzomib + Olaparib; first compound 0.003162 µM) | relative viability (Carfilzomib + Olaparib; first compound 0.01 µM) | relative viability (Carfilzomib + Olaparib; first compound 0.03162 µM) | relative viability (Carfilzomib + Olaparib; first compound 0.1 µM) |
| --- | --- | --- | --- | --- | --- | --- | --- | --- | --- | --- |
| NCI-H460 | 0.125 | 0.225 | 0.0809 | 0.0983 | 0.0171 | 0.41 | 0.444 | 0.485 | 0.443 | 0.0304 |
| NCI-H520 | 0.187 | 0.217 | 0.162 | 0.133 | 0.144 | 0.307 | 0.297 | 0.203 | 0.161 | 0.15 |
| NCI-H522 | 0.873 | 0.977 | 0.848 | 1.08 | 0.274 | 0.586 | 0.778 | 0.694 | 0.489 | 0.314 |
| NCI-H596 | – | – | – | – | – | 0.691 | 0.704 | 0.727 | 0.552 | 0.186 |
| NCI-H647 | 0.458 | 0.45 | 0.306 | 0.0189 | 0.0185 | 0.641 | 0.644 | 0.0662 | 0.0256 | 0.023 |
| NCI-H650 | 0.331 | 0.362 | 0.367 | 0.224 | 0.14 | 0.363 | 0.382 | 0.414 | 0.247 | 0.112 |
| NCI-H661 | 0.423 | 0.414 | 0.472 | 0.398 | 0.318 | 0.731 | 0.806 | 0.725 | 0.684 | 0.312 |
| NCI-H727 | 0.575 | 0.607 | 0.628 | 0.584 | 0.417 | 0.705 | 0.751 | 0.859 | 0.62 | 0.242 |
| NCI-H838 | 0.209 | 0.226 | 0.268 | 0.193 | 0.102 | 0.79 | 0.799 | 0.785 | 0.126 | 0.109 |
| NCI-H1299 | – | – | – | – | – | 0.964 | 0.998 | 0.933 | 0.191 | 0.116 |
| NCI-H1355 | 0.41 | 0.419 | 0.432 | 0.422 | 0.139 | 0.732 | 0.777 | 0.754 | 0.62 | 0.118 |
| NCI-H1395 | – | 0.676 | 0.635 | 0.497 | 0.31 | – | 0.516 | 0.428 | 0.356 | 0.303 |
| NCI-H1437 | 0.318 | 0.329 | 0.415 | 0.296 | 0.213 | 0.629 | 0.666 | 0.645 | 0.419 | 0.171 |
| NCI-H1648 | 0.236 | 0.23 | 0.227 | 0.288 | 0.255 | 1.07 | 0.563 | 0.745 | 0.922 | 0.189 |
| NCI-H1650 | 0.306 | 0.371 | 0.209 | 0.11 | 0.188 | 0.811 | 0.855 | 0.723 | 0.111 | 0.137 |
| NCI-H1651 | 0.521 | 0.549 | 0.485 | 0.151 | 0.0991 | 0.184 | 0.188 | 0.167 | 0.101 | 0.0957 |
| NCI-H1666 | 0.674 | 0.67 | 0.651 | 0.615 | 0.488 | 0.757 | 0.782 | 0.75 | 0.709 | 0.528 |

| Cell Line | relative viability ([1]; first compound 0.001 µM) | relative viability ([1]; first compound 0.003162 µM) | relative viability ([1]; first compound 0.01 µM) | relative viability ([1]; first compound 0.03162 µM) | relative viability ([1]; first compound 0.1 µM) | relative viability (Carfilzomib + Olaparib; first compound 0.001 µM) | relative viability (Carfilzomib + Olaparib; first compound 0.003162 µM) | relative viability (Carfilzomib + Olaparib; first compound 0.01 µM) | relative viability (Carfilzomib + Olaparib; first compound 0.03162 µM) | relative viability (Carfilzomib + Olaparib; first compound 0.1 µM) |
| --- | --- | --- | --- | --- | --- | --- | --- | --- | --- | --- |
| NCI-H1703 | – | – | – | – | – | 0.44 | 0.493 | 0.124 | 0.1 | 0.129 |
| NCI-H1734 | 0.346 | 0.382 | 0.354 | 0.315 | 0.105 | 0.649 | 0.679 | 0.666 | 0.547 | 0.113 |
| NCI-H1755 | 0.465 | 0.458 | 0.461 | 0.408 | 0.293 | 0.978 | 0.934 | 0.875 | 0.609 | 0.343 |
| NCI-H1792 | 0.655 | 0.646 | 0.707 | 0.634 | 0.466 | – | 0.41 | 0.633 | 0.393 | 0.0411 |
| NCI-H1915 | 0.479 | 0.513 | 0.521 | 0.514 | 0.0575 | 0.292 | 0.265 | 0.248 | 0.247 | 0.058 |
| NCI-H1944 | 0.318 | 0.361 | 0.372 | 0.318 | 0.152 | 0.438 | 0.513 | 0.441 | 0.374 | 0.187 |
| NCI-H1975 | 0.364 | 0.635 | 0.472 | 0.119 | 0.107 | 0.828 | 0.825 | 0.393 | 0.123 | 0.118 |
| NCI-H1993 | 0.667 | 0.658 | 0.641 | 0.723 | 0.383 | 0.984 | 1.11 | 1.1 | 1.04 | 0.407 |
| NCI-H2009 | 0.186 | 0.275 | 0.201 | 0.0584 | 0.0475 | 0.736 | 0.732 | 0.729 | 0.631 | 0.0565 |
| NCI-H2023 | 0.341 | 0.344 | 0.405 | 0.235 | 0.0653 | 0.484 | 0.521 | 0.486 | 0.133 | 0.0615 |
| NCI-H2085 | 0.501 | 0.47 | 0.456 | 0.371 | 0.265 | 0.771 | 0.739 | 0.749 | 0.372 | 0.244 |
| NCI-H2087 | 0.194 | 0.343 | 0.192 | 0.0427 | 0.0568 | 0.589 | 0.783 | 0.374 | 0.0505 | 0.0285 |
| NCI-H2126 | 0.374 | 0.372 | 0.337 | 0.346 | 0.278 | 0.897 | 1.01 | 0.957 | 0.746 | 0.464 |
| NCI-H2170 | 0.38 | 0.437 | 0.456 | 0.339 | 0.127 | 0.6 | 0.674 | 0.588 | 0.218 | 0.117 |
| NCI-H2228 | 0.466 | 0.886 | 0.557 | 0.104 | 0.105 | 0.838 | 0.813 | 0.61 | 0.0953 | 0.124 |
| NCI-H2342 | 0.488 | 0.57 | 0.58 | 0.576 | 0.44 | 0.424 | 0.541 | 0.499 | 0.497 | 0.317 |
| NCI-H2347 | 0.463 | 0.427 | 0.438 | 0.382 | 0.332 | 0.502 | 0.587 | 0.564 | 0.503 | 0.363 |

Reference: the supplement of paper PMC10307832
